# Measured values: US20110287953A1, “METHOD FOR DISCOVERING POTENTIAL DRUGS” (priority 2010, published 2011)
# pIC50: −log10 of the molar value. Like-named read-outs stand apart in the source and are kept apart here.
# How the values were obtained:
# [1] = test system: HCC cell lines, Mahlavu, PLC5, HepG2, and Huh7; test: MTT cell viability test in HCC cell lines
# Experimental: (§1) The HCC cell lines, Mahlavu, PLC5, HepG2, and Huh7, were cultured in Dulbecco's Modified Eagle Medium (DMEM; Seromed, Berlin, Germany) supplemented with 10% heat-inactivated fetal bovine serum, 100 μg/ml streptomycin, 100 μg/ml penicillin, and 2 mM L-glutamine in a humidified atmosphere containing 5% CO2 at 37° C. […] The cells were exposed to different concentrations of the small molecules for 72 hours. Control cells were incubated in the absence of small molecules. Afterwards, the cells were incubated with medium containing MTT for 2 hours. […] For the clonogenic assay, Huh7 cells were seeded out in appropriate dilutions in a 6-well plate and treated with selected small molecules at various concentrations for 15 days. Colonies were fixed with glutaraldehyde (6.0% v/v), stained with crystal violet (0.5% w/v), and counted.
# Huh7 cells = test: Clonogenic assay; type: cell-based; conditions: for inhibition at 10 µM: Homo sapiens, Huh-7, 360 h; for inhibition at 10 µM / Clonogenic assay: colony number at 10 μM
# Experimental: The HCC cell lines, Mahlavu, PLC5, HepG2, and Huh7, were cultured in Dulbecco's Modified Eagle Medium (DMEM; Seromed, Berlin, Germany) supplemented with 10% heat-inactivated fetal bovine serum, 100 μg/ml streptomycin, 100 μg/ml penicillin, and 2 mM L-glutamine in a humidified atmosphere containing 5% CO2 at 37° C. The viability of the exposed cells was determined using the MTT cell viability assay kit (Sigma-Aldrich, St. Louis, USA), according to the manufacturer's instructions. […] The cells were exposed to different concentrations of the small molecules for 72 hours. Control cells were incubated in the absence of small molecules. Afterwards, the cells were incubated with medium containing MTT for 2 hours. The optical density at 450 nm was measured using a microplate reader (Spectral Max250). For the clonogenic assay, Huh7 cells were seeded out in appropriate dilutions in a 6-well plate and treated with selected small molecules at various concentrations for 15 days. Colonies were fixed with glutaraldehyde (6.0% v/v), stained with crystal violet (0.5% w/v), and counted.
# HCC cell lines = test: Drug efficacy label of top 10 CMap drugs (MTT or clonogenic); type: cell-based; conditions: Table 2-3; labels (1) and (4); gene set in which the drug ranked top 10;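 note: label 1 means effective by MTT or clonogenic assay and 4 means ineffective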
# Experimental: as §1
# [2] = 72 h, Table 3-1, HCC cell lines, MTT
# [3] = Table 3-1, HCC cell lines, 72 hours, MTT
# [4] = 72 h, Table 2-2, HCC cell lines, MTT
molecule,measurement,setting,value
CC(C)COCC(CN(Cc1ccccc1)c1ccccc1)N1CCCC1 (stereo not drawn) [bepridil],pIC50,[1]; [2],5.00 to 5.30
Cc1cc2cc3c(C)cc(=O)oc3c(C)c2o1 [trioxysalen],inhibition at 10 µM,"Huh7 cells; Table 3-1, 15 days",> 50%
same,pIC50,[1]; [2],< 5.00
O=C1Nc2ccc3ncsc3c2/C1=C/Nc1ccc(S(=O)(=O)Nc2ccccn2)cc1 [GW-8510],pIC50,[1]; [3],5.00 to 5.30
O=C1c2c(O)ccc(O)c2C(=O)c2c(NCCNCCO)ccc(NCCNCCO)c21 [mitoxantrone],pIC50,[1]; [2],6.00 to 7.00
Oc1ccc(C=Cc2cc(O)cc(O)c2)cc1 [resveratrol],drug efficacy label,HCC cell lines,resveratrol (4)
Nc1ncn([C@@H]2O[C@H](CO)[C@@H](O)[C@H]2O)c(=O)n1 [azacitidine],inhibition at 10 µM,"Huh7 cells; Table 3-1, 15 days",> 50%
same,pIC50,[1]; [2],< 5.00
OCCN(CCO)c1nc(N2CCCCC2)c2nc(N(CCO)CCO)nc(N3CCCCC3)c2n1 [dipyridamole],inhibition at 10 µM,"Huh7 cells; Table 3-1, 15 days",> 50%
same,Clonogenic assay,"Huh7 cells; Table 2-2, 15 days",Effective (Effectiveness in clonogenic assay is defined as reducing more than 50% colony number at 10 μM)
same,pIC50,[1]; [4],< 5.00
same,pIC50,[1]; [2],< 5.00
CC(C(=O)O)c1cccc(Oc2ccccc2)c1 (stereo not drawn) [fenoprofen],pIC50,[1]; [2],< 5.00
CC1=C(CO)C(=O)O[C@@H]([C@@H](C)[C@H]2CC[C@H]3[C@@H]4C[C@H]5O[C@]56[C@@H](O)C=CC(=O)[C@]6(C)[C@H]4CC[C@]23C)C1 [withaferin A],pIC50,[1]; [3],6.00 to 7.00
C[n+]1cc2c3c(ccc2c2ccc4cc5c(cc4c21)OCO5)OCO3 [sanguinarine],pIC50,[1]; 72 h,6.00 to 7.00
tyloxapol,pIC50,[1]; [3],5.00 to 5.30
CC[C@H]1CN2CCc3cc(OC)c(OC)cc3[C@@H]2C[C@@H]1C[C@H]1NCCc2cc(OC)c(OC)cc21 [emetine],pIC50,[1]; [2],6.00 to 7.00
CCCNCC(O)COc1ccccc1C(=O)CCc1ccccc1 (stereo not drawn) [propafenone],inhibition at 10 µM,"Huh7 cells; Table 3-1, 15 days",> 50%
same,pIC50,[1]; [2],< 5.00
CCN(CC)CCOC(=O)c1ccc(N)cc1 [procaine],pIC50,[1]; [2],< 5.00
C=C(NC(=O)C(=C)NC(=O)c1csc(C2=N[C@@H]3c4csc(n4)[C@H]4NC(=O)c5csc(n5)[C@H]([C@](C)(O)[C@@H](C)O)NC(=O)[C@H]5CSC(=N5)/C(=C/C)NC(=O)[C@H]([C@@H](C)O)NC(=O)c5csc(n5)[C@]3(CC2)NC(=O)[C@H](C)NC(=O)C(=C)NC(=O)[C@H](C)NC(=O)[C@H]([C@@H](C)CC)N[C@@H]2C=Cc3c([C@H](C)O)cc(nc3[C@H]2O)C(=O)O[C@@H]4C)n1)C(N)=O [thiostrepton],pIC50,[1]; [2],5.30 to 6.00
O=C(CCCN1CCC2(CC1)C(=O)NCN2c1ccccc1)c1ccc(F)cc1 [spiperone],inhibition at 10 µM,"Huh7 cells; Table 3-1, 15 days",> 50%
Cc1c2ccncc2c(C)c2c1[nH]c1ccccc12 [ellipticine],pIC50,[1]; [2],6.00 to 7.00
C=C(C)[C@H]1Cc2c(ccc3c2O[C@@H]2COc4cc(OC)c(OC)cc4[C@@H]2C3=O)O1 [rotenone],pIC50,[1]; [2],6.00 to 7.00
CN(C)CCCN1c2ccccc2Sc2ccc(Cl)cc21 [chlorpromazine],drug efficacy label,HCC cell lines,chlorpromazine (1)
same,inhibition at 10 µM,"Huh7 cells; Table 3-1, 15 days",> 50%
same,Clonogenic assay,"Huh7 cells; Table 2-2, 15 days",Effective (Effectiveness in clonogenic assay is defined as reducing more than 50% colony number at 10 μM)
same,pIC50,[1]; [4],< 5.00
same,pIC50,[1]; [2],5.00 to 5.30
Clc1ccc(CSC(Cn2ccnc2)c2ccc(Cl)cc2Cl)cc1 (stereo not drawn) [sulconazole],inhibition at 10 µM,"Huh7 cells; Table 3-1, 15 days",> 50%
same,Clonogenic assay,"Huh7 cells; Table 2-2, 15 days",Effective (Effectiveness in clonogenic assay is defined as reducing more than 50% colony number at 10 μM)
CC[C@@]1(O)C(=O)OCc2c1cc1n(c2=O)Cc2cc3ccccc3nc2-1 [camptothecin],pIC50,[1]; [2],6.00 to 7.00
COc1ccc2c(OC)c3ccoc3nc2c1OC [skimmianine],inhibition at 10 µM,"Huh7 cells; Table 3-1, 15 days",> 50%
same,pIC50,[1]; [2],< 5.00
Cc1ccc(S(=O)(=O)NC(=O)NN2CC3CCCC3C2)cc1 (stereo not drawn) [gliclazide],Clonogenic assay,"Huh7 cells; Table 3-1, 15 days",Ineffective
same,pIC50,[1]; [2],< 5.00
CC[C@@H](CO)NC(=O)[C@@H]1C=C2c3cccc4[nH]cc(c34)C[C@H]2N(C)C1 [methylergometrine],drug efficacy label,HCC cell lines,methylergometrine (4)
same,Clonogenic assay,"Huh7 cells; Table 3-1, 15 days",Ineffective
same,pIC50,[1]; 72 h,< 5.00
COc1cc(/C=C/C(=O)N2CCC=CC2=O)cc(OC)c1OC [piperlongumine],pIC50,[1],5.30 to 6.00
COc1cnc(NS(=O)(=O)c2ccc(N)cc2)nc1 [sulfametoxydiazine],pIC50,[1]; [2],< 5.00
Cc1ccsc1/C=C/C1=NCCCN1C [morantel],pIC50,[1]; 72 h,< 5.00
Cc1cc(C2CCCCC2)n(O)c(=O)c1 [ciclopirox],pIC50,[1]; [2],5.00 to 5.30
CN(C)C/C=C(/c1ccc(Br)cc1)c1cccnc1 [zimeldine],Clonogenic assay,"Huh7 cells; Table 3-1, 15 days",Ineffective
same,pIC50,[1]; [2],< 5.00
O=C(O)CNC(=O)C(CS)Cc1ccccc1 (racemic) [DL-thiorphan],Clonogenic assay,"Huh7 cells; Table 3-1, 15 days",Ineffective
same,pIC50,[1]; [3],< 5.00
O=C(O)c1ccccc1C(=O)Nc1ccc(S(=O)(=O)Nc2nccs2)cc1 [phthalylsulfathiazole],Clonogenic assay,"Huh7 cells; Table 3-1, 15 days",Ineffective
same,pIC50,[1]; [2],< 5.00
CC(=O)Oc1cc(C(F)(F)F)ccc1C(=O)O [triflusal],Clonogenic assay,"Huh7 cells; Table 2-2, 15 days",Ineffective
same,Clonogenic assay,"Huh7 cells; Table 3-1, 15 days",Ineffective
same,pIC50,[1]; [4],< 5.00
same,pIC50,[1]; [2],< 5.00
O=c1cc(-c2ccc(O)cc2)oc2cc(O)cc(O)c12 [apigenin],drug efficacy label,HCC cell lines,apigenin (1)
same,growth / survival of Huh7 cells,Huh7 cells,inhibited the growth of Huh7 cells
same,inhibition at 10 µM,"Huh7 cells; Table 3-1, 15 days",> 50%
same,Clonogenic assay,"Huh7 cells; Table 2-2, 15 days",Effective (Effectiveness in clonogenic assay is defined as reducing more than 50% colony number at 10 μM)
same,pIC50,[1]; [4],< 5.00
same,pIC50,[1]; [2],< 5.00
CC[C@H]1OC(=O)[C@H](C)[C@@H](O[C@H]2C[C@@](C)(OC)[C@@H](O)[C@H](C)O2)[C@H](C)[C@@H](O[C@@H]2O[C@H](C)C[C@H](N(C)C)[C@H]2O)[C@](C)(O)C[C@@H](C)/C(=N\OCOCCOC)[C@H](C)[C@@H](O)[C@]1(C)O [roxithromycin],pIC50,[1]; [2],< 5.00
COc1ccccc1N1CCN(CCCCNC(=O)c2ccc3ccccc3c2)CC1.Cl.Cl [DO 897/99],Clonogenic assay,"Huh7 cells; Table 3-1, 15 days",Effective (Effectiveness in clonogenic assay is defined as reducing more than 50% colony number at 10 μM)
same,pIC50,[1]; [3],< 5.00
CCCCC(CC)CNC(=N)NC(=N)NCCCCCCNC(=N)NC(=N)NCC(CC)CCCC (stereo not drawn) [alexidine],pIC50,[1]; [2],6.00 to 7.00
C[C@]12CC[C@@H]3c4ccc(O)cc4CC[C@H]3[C@@H]1C[C@@H](O)[C@@H]2O [estriol],pIC50,[1]; [2],< 5.00
C#C[C@]1(O)CC[C@H]2[C@@H]3CCC4=CC(=O)CC[C@@H]4[C@H]3CC[C@@]21CC [levonorgestrel],pIC50,[1]; [2],< 5.00
Cn1c([N+](=O)[O-])cnc1COC(N)=O [ronidazole],pIC50,[1]; [2],< 5.00
CC1=CC(=O)C2=C(C)CC[C@@H]3[C@H](OC(=O)[C@H]3C)[C@@H]12 [leucomisine],Clonogenic assay,"Huh7 cells; Table 3-1, 15 days",Ineffective
same,pIC50,[1]; [3],< 5.00
C#CCN(C)Cc1ccccc1 [pargyline],pIC50,[1]; [2],< 5.00
CC1CC(OC(=O)C(O)c2ccccc2)CC(C)(C)N1C (stereo not drawn) [eucatropine],pIC50,[1]; [2],< 5.00
OC(c1cc(C(F)(F)F)nc2c(C(F)(F)F)cccc12)C1CCCCN1 (stereo not drawn) [mefloquine],pIC50,[1]; [2],5.30 to 6.00
CSc1ccc2c(c1)N(CCC1CCCCN1C)c1ccccc1S2 (stereo not drawn) [thioridazine],drug efficacy label,HCC cell lines,thioridazine (1)
COc1c2ccoc2nc2c(OC)c(OCC(O)C(C)(C)O)ccc12 (stereo not drawn) [evoxine],Clonogenic assay,"Huh7 cells; Table 3-1, 15 days",Ineffective
same,pIC50,[1]; [2],< 5.00
Oc1c(I)cc(Cl)c2cccnc12 [clioquinol],pIC50,[1]; [2],5.00 to 5.30
N[C@@H]1CON=C1O [cycloserine],Clonogenic assay,"Huh7 cells; Table 3-1, 15 days",Ineffective
same,pIC50,[1]; [2],< 5.00
COc1ccc([C@@H]2Sc3ccccc3N(CCN(C)C)C(=O)[C@@H]2OC(C)=O)cc1 [diltiazem],pIC50,[1]; [2],< 5.00
Cc1cc2c(cc1S(N)(=O)=O)S(=O)(=O)CCC2 [meticrane],Clonogenic assay,"Huh7 cells; Table 3-1, 15 days",Ineffective
same,pIC50,[1]; [2],< 5.00
C[C@@H]1C(=O)O[C@H]2C[C@@]34[C@H]5C[C@@H](C(C)(C)C)[C@]36[C@@H](OC(=O)[C@@H]6O)O[C@@]4(C(=O)O5)[C@]21O [ginkgolide A],pIC50,[1]; [3],< 5.00
C=CCNC1=C2C[C@@H](C)C[C@H](OC)[C@H](O)[C@@H](C)/C=C(\C)[C@H](OC(N)=O)[C@@H](OC)/C=C\C=C(/C)C(=O)NC(=CC1=O)C2=O [tanespimycin],drug efficacy label,HCC cell lines,tanespimycin (1)
same,cell viability / cytotoxicity in HCC cell lines,"[1]; 0.1, 1 and 10 μM, 72 hours, MTT",exhibited cytotoxicity effect
same,pIC50,[1]; [4],> 7.00
same,pIC50,[1]; [2],> 7.00
same,pIC50,"[1]; 72 h, HCC cell lines",> 5.00
O=c1cc(-c2ccccc2)oc2cc(O)cc(O)c12 [chrysin],pIC50,[1]; [2],< 5.00
